ChEMBL document CHEMBL1201862, “PubChem BioAssay data set” (2004)
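Method: 48-hour compound exposure of cells in 96-well plates, five concentrations, linear interpolation of endpoints. GI50 marks 50% less growth.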 Calls of active or inactive are those of the source. Rule as the data show it: active = GI50 up to about 1.1 µM and inactive = higher.

Tests used:
Experiment in all cases: growth of human tumour cells (NCI), 48 h
786-0 = system: 786-0
A549 = system: A549
ACHN = system: ACHN
DU-145 = system: DU-145
EKVX = system: EKVX
HCT-15 = system: HCT-15
HL-60 = system: HL-60
HOP-92 = system: HOP-92
HT-29 = system: HT-29
K562 = system: K562
NCI-H460 = system: NCI-H460
NCI/ADR-RES = system: NCI/ADR-RES
PC-3 = system: PC-3
RXF 393 = system: RXF 393
SF-268 = system: SF-268
SK-OV-3 = system: SK-OV-3
SR = system: SR
SW-620 = system: SW-620
TK-10 = system: TK-10

Structure (SMILES) | GI50 (786-0) | GI50 (A549) | GI50 (ACHN) | GI50 (DU-145) | GI50 (EKVX) | GI50 (HCT-15) | GI50 (HL-60) | GI50 (HOP-92) | GI50 (HT-29) | GI50 (K562) | GI50 (NCI-H460) | GI50 (NCI/ADR-RES) | GI50 (PC-3) | GI50 (RXF 393) | GI50 (SF-268) | GI50 (SK-OV-3) | GI50 (SR) | GI50 (SW-620) | GI50 (TK-10)
O=C(CCSC(CC(=O)c1ccc(Cl)cc1)c1ccc(Cl)cc1)Nc1ccc(Cl)cc1 (stereo not drawn) | 13.8 µM (inactive) | 14.6 µM (inactive) | 14.4 µM (inactive) | 14 µM (inactive) | 12.7 µM (inactive) | 10.8 µM | 4.1 µM (inactive) | 17.6 µM (inactive) | 9.23 µM (inactive) | 4.06 µM (inactive) | 10.2 µM (inactive) | 15.5 µM (inactive) | 14.1 µM (inactive) | 14.9 µM (inactive) | 15.2 µM (inactive) | 20.7 µM (inactive) | 2.91 µM (inactive) | 2.88 µM (inactive) | 14.6 µM (inactive)
COc1cc(OCc2ccc3nc(-c4ccccc4)c(N)nc3c2)cc(OC)c1OC | 30.8 µM (inactive) | 20.6 µM (inactive) | 20.8 µM (inactive) | 22.2 µM (inactive) | 19.7 µM (inactive) | 17.3 µM | 12.4 µM (inactive) | 11.4 µM (inactive) |  | 15.5 µM (inactive) | 18.7 µM (inactive) | 20.7 µM (inactive) | 17.8 µM (inactive) | 23.1 µM (inactive) | 34.8 µM (inactive) |  | 17.9 µM (inactive) | 28.2 µM (inactive) | 24.1 µM (inactive)
Oc1ccc(-c2cc(-c3cc(-c4ccc(O)cc4)no3)on2)cc1 | > 100 µM (inactive) | 50 µM (inactive) | 2.81 µM (inactive) | 5.09 µM (inactive) | 26.5 µM (inactive) | 1.98 µM | 3.36 µM (inactive) | > 100 µM (inactive) | > 100 µM (inactive) | 1.75 µM (inactive) | 41.6 µM (inactive) | > 100 µM (inactive) | 13.2 µM (inactive) | > 100 µM (inactive) | 41.2 µM (inactive) | > 100 µM (inactive) | 19.1 µM (inactive) | > 30.3 µM (inactive) | > 100 µM (inactive)
Cc1ccc2c(c1)C(C1Cc3cccc(C)c3C1=O)OC2=O (stereo not drawn) | > 100 µM (inactive) | > 100 µM (inactive) | > 100 µM (inactive) | > 100 µM (inactive) | 67.6 µM (inactive) | > 100 µM | 35.8 µM (inactive) | > 100 µM (inactive) | > 100 µM (inactive) | 84.3 µM (inactive) | > 100 µM (inactive) | > 100 µM (inactive) | > 100 µM (inactive) | 22.4 µM (inactive) | > 100 µM (inactive) | > 100 µM (inactive) | 60.8 µM (inactive) | > 100 µM (inactive) | > 100 µM (inactive)
CN(C)c1ccc(/N=N\c2cccc3ncccc23)cc1 | > 80.4 µM (inactive) | 63.7 µM (inactive) | 35.6 µM (inactive) | 75.7 µM (inactive) | 11.7 µM (inactive) | 51.9 µM | 12.8 µM (inactive) | 36.9 µM (inactive) | 39 µM (inactive) | 35.4 µM (inactive) | 26.6 µM (inactive) | 49 µM (inactive) | 42.6 µM (inactive) | > 100 µM (inactive) | > 94 µM (inactive) | > 100 µM (inactive) | 55 µM (inactive) | 62.2 µM (inactive) | 0.0425 µM (active)
Cc1ccc(S(=O)(=O)N2CCN(CCO)CCN(S(=O)(=O)c3ccc(C)cc3)CCN(CCO)CC2)cc1 | 23.6 µM (inactive) | 20.7 µM (inactive) | 31 µM (inactive) | 15 µM (inactive) | 18.2 µM (inactive) | 18.6 µM | 18 µM (inactive) | 21.5 µM (inactive) | 12.2 µM (inactive) | 17.1 µM (inactive) | 14.3 µM (inactive) | 18.5 µM (inactive) | 33 µM (inactive) | 13.9 µM (inactive) | 26.1 µM (inactive) |  | 12.3 µM (inactive) | 33.7 µM (inactive) | 28.2 µM (inactive)
Cc1cc(NS(=O)(=O)c2ccc(Nc3c4ccccc4nc4ccc(C(=O)Nc5ccc(S(=O)(=O)N=C(N)N)cc5)cc34)cc2)no1 | > 100 µM (inactive) | > 100 µM (inactive) | > 100 µM (inactive) | > 100 µM (inactive) | > 100 µM (inactive) | > 100 µM | > 100 µM (inactive) | > 100 µM (inactive) | > 100 µM (inactive) | > 100 µM (inactive) | > 100 µM (inactive) | > 100 µM (inactive) | > 100 µM (inactive) | > 100 µM (inactive) | > 100 µM (inactive) | > 100 µM (inactive) | > 100 µM (inactive) | > 100 µM (inactive) | > 100 µM (inactive)
CCCCCCCCCCC1OC([C@@H](O)CC[C@H](O)C2CC[C@@H](CCCCCCCC(O)CC3=CC(C)OC3=O)O2)CCC1O (stereo partly drawn) | 11.5 µM (inactive) | 5.21 µM (inactive) | 6.38 µM (inactive) | 14.6 µM (inactive) | 2.09 µM (inactive) | 10.1 µM | 2.74 µM (inactive) | 8.95 µM (inactive) | 5.4 µM (inactive) | 0.204 µM (active) | 1.52 µM (inactive) | 1.5 µM (inactive) | 5.94 µM (inactive) | > 9.77 µM (inactive) | 2.35 µM (inactive) | 7.67 µM (inactive) | 0.0025 µM (active) | > 17.9 µM (inactive) | 11.7 µM (inactive)
CC1(C)OC(=O)N(c2ccccc2)C12C=Cc1cccc([N+](=O)[O-])c1O2 (stereo not drawn) | > 100 µM (inactive) | 79.1 µM (inactive) | > 100 µM (inactive) | > 100 µM (inactive) | 60.8 µM (inactive) | 90.2 µM | 17.5 µM (inactive) | > 100 µM (inactive) | 98.9 µM (inactive) | 35.1 µM (inactive) | > 100 µM (inactive) | 48.2 µM (inactive) | 31 µM (inactive) | > 100 µM (inactive) | > 100 µM (inactive) | 28.2 µM (inactive) | 9.18 µM (inactive) | > 100 µM (inactive) | > 100 µM (inactive)
CCOP(=O)(OCC)/C(C#N)=C/c1cnc[nH]1 | > 100 µM (inactive) | > 100 µM (inactive) | > 100 µM (inactive) | > 100 µM (inactive) | > 100 µM (inactive) | > 100 µM | > 100 µM (inactive) | > 100 µM (inactive) | > 100 µM (inactive) | > 100 µM (inactive) | > 100 µM (inactive) | > 100 µM (inactive) | > 100 µM (inactive) | > 100 µM (inactive) | > 100 µM (inactive) | > 100 µM (inactive) | > 100 µM (inactive) | > 100 µM (inactive) | > 100 µM (inactive)
Cc1ccc(-c2c3c(n(C4OC(CO)C(O)C(O)C4O)c(=S)c2C#N)CC(C)(C)CC3=O)cc1 (stereo not drawn) | 47.4 µM (inactive) | > 100 µM (inactive) | 65.5 µM (inactive) | > 100 µM (inactive) |  | 45.9 µM | 41.5 µM (inactive) | 68.7 µM (inactive) | 33.1 µM (inactive) | 45.2 µM (inactive) | 52.2 µM (inactive) | > 100 µM (inactive) | 41.1 µM (inactive) | > 100 µM (inactive) | > 100 µM (inactive) |  | 37 µM (inactive) | > 100 µM (inactive) | > 100 µM (inactive)
O=C(O)CCCC(=O)Nn1c(Cc2ccc(Cl)cc2)n[nH]c1=O | > 100 µM (inactive) | > 100 µM (inactive) | > 100 µM (inactive) | > 100 µM (inactive) | > 100 µM (inactive) | > 100 µM | 26.9 µM (inactive) | > 100 µM (inactive) | > 100 µM (inactive) | > 100 µM (inactive) |  | > 100 µM (inactive) | > 100 µM (inactive) | > 100 µM (inactive) | > 100 µM (inactive) | > 100 µM (inactive) | > 100 µM (inactive) | > 100 µM (inactive) | > 100 µM (inactive)
CC1=CC(C)C(C)N(CCNS(=O)(=O)c2ccc(C)cc2)c2ccccc21 (stereo not drawn) | 14.2 µM (inactive) | 19.4 µM (inactive) | 15.8 µM (inactive) | 11.1 µM (inactive) | 16.4 µM (inactive) | 18.2 µM | 14 µM (inactive) | 18.8 µM (inactive) | 12.5 µM (inactive) | 14.7 µM (inactive) | 12.8 µM (inactive) | 15.2 µM (inactive) | 12.5 µM (inactive) | 12.1 µM (inactive) | 13 µM (inactive) | 29.6 µM (inactive) | 16 µM (inactive) | > 10 µM (inactive) | 30.5 µM (inactive)
O=c1ccn([C@@H]2C[C@@H]2CO)c(=O)[nH]1 | > 100 µM (inactive) | > 100 µM (inactive) | > 100 µM (inactive) | > 100 µM (inactive) | > 100 µM (inactive) | > 100 µM | > 100 µM (inactive) | > 100 µM (inactive) | > 100 µM (inactive) | > 100 µM (inactive) | > 100 µM (inactive) | > 100 µM (inactive) | > 100 µM (inactive) | > 100 µM (inactive) | > 100 µM (inactive) |  | > 100 µM (inactive) | > 100 µM (inactive) | > 100 µM (inactive)
O=C1c2ccccc2-n2c1nc1ccc([N+](=O)[O-])cc1c2=O | 46.5 µM (inactive) | > 100 µM (inactive) | 58.9 µM (inactive) | > 100 µM (inactive) | 93.1 µM (inactive) | 29.3 µM | 13.9 µM (inactive) | > 100 µM (inactive) | > 10 µM (inactive) | 30.1 µM (inactive) | > 100 µM (inactive) | > 100 µM (inactive) | > 100 µM (inactive) | 60.4 µM (inactive) | 26.4 µM (inactive) | > 100 µM (inactive) | 28.8 µM (inactive) | 45.1 µM (inactive) | > 100 µM (inactive)
